Data taken from ChEMBL document CHEMBL1743341, “Cytochrome p450 enzymes mechanism based inhibitors: common sub-structures and reactivity” (Curr Drug Metab, 2005).

How the values were obtained:
Type in all cases: ADME
[1] = molecular target: T1, CYP2B1 (Rattus norvegicus, UniProt P00176); assay: (§1) Mechanism based inhibition of rat cytochrome P450 CYP2B1 measured by 7-EFC O-deethylation activity; conditions: rat, probe 7-EFC (O-deethylation)
T1 sequence (P00176 whole entry): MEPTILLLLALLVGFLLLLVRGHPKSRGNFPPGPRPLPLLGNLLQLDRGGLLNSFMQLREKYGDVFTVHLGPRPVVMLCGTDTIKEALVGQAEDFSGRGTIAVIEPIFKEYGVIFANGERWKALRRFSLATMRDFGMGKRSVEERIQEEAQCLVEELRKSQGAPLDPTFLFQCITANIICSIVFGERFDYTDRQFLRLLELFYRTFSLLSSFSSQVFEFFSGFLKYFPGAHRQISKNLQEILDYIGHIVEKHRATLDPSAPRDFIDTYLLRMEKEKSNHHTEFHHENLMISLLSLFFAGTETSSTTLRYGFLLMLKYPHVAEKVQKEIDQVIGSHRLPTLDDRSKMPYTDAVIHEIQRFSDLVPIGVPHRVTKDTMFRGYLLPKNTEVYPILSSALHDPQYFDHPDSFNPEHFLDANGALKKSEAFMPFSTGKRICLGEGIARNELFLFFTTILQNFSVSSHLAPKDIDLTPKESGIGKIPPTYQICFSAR

[2] = molecular target: T2, Cytochrome P450 2B1 (Rattus norvegicus, UniProt P00176); assay: as §1
T2 sequence (P00176 whole entry): T1 sequence (P00176 whole entry)

[3] = molecular target: Cytochrome P450 3A5 (Homo sapiens, UniProt P20815); assay: Mechanism based inhibition of human cytochrome P450 3A5
[4] = molecular target: T3, Cytochrome P450 3A4 (Homo sapiens, UniProt P08684); assay: Mechanism based inhibition of human cytochrome P450 3A4 measured by testosterone 6-beta hydroxylation
[5] = molecular target: T4, Cytochrome P450 1A1 (Homo sapiens, UniProt P04798); assay: Mechanism based inhibition of human cytochrome P450 1A1 measured by 7-ethoxyresorufin O-deethylation (EROD)
T4 sequence (P04798 whole entry): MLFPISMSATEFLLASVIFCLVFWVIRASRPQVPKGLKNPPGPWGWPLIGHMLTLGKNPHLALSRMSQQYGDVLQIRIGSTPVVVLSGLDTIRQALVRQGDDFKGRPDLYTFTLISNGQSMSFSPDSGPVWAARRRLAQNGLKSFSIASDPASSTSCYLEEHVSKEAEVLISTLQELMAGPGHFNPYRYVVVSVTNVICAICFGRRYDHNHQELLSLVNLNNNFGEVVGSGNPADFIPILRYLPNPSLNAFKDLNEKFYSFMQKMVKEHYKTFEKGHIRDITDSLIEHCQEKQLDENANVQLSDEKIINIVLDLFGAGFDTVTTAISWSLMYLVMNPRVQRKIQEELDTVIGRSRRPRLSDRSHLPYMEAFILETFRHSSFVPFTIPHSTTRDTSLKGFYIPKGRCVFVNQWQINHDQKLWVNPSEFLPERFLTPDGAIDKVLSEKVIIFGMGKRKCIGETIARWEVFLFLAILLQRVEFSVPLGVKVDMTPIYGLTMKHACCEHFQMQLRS

[6] = molecular target: T5, Cytochrome P450 1A2 (Homo sapiens, UniProt P05177); assay: Mechanism based inhibition of human cytochrome P450 1A2 measured by 7-ethoxyresorufin O-deethylation (EROD)
T5 sequence (P05177 whole entry): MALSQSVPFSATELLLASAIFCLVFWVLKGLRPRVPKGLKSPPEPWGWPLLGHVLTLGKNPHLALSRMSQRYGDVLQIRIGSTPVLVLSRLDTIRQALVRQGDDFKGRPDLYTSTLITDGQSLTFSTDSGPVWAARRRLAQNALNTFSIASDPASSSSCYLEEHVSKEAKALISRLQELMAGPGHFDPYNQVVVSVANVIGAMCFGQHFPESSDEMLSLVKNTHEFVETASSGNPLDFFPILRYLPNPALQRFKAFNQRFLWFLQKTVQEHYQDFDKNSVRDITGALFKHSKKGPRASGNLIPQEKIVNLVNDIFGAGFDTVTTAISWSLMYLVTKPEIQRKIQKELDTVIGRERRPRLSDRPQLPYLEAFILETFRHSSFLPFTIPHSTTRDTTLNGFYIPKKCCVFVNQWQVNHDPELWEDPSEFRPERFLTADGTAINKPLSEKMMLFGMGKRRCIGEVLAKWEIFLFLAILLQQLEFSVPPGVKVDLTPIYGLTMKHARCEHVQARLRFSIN

[7] = molecular target: Cytochrome P450 2C9 (Homo sapiens, UniProt P11712); assay: Mechanism based inhibition of human cytochrome P450 2C9 measured by diclofenac 4-hydroxylation
[8] = molecular target: T6, Cytochrome P450 2B6 (Homo sapiens, UniProt P20813); assay: (§2) Mechanism based inhibition of human cytochrome P450 2B6
T6 sequence (P20813 whole entry): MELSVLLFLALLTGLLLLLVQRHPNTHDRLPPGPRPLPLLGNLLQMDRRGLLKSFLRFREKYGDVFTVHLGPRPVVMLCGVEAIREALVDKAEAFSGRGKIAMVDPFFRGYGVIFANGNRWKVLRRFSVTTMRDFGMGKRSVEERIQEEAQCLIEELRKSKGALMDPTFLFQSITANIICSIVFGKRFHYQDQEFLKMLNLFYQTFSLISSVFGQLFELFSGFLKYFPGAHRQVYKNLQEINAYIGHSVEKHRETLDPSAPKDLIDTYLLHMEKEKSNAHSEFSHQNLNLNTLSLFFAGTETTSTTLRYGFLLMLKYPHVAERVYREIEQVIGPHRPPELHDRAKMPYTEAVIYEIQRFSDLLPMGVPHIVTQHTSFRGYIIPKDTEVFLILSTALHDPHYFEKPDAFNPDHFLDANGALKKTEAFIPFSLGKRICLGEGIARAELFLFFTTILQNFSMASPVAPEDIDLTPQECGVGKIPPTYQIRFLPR

[9] = molecular target: T7, CYP2B6 (Homo sapiens, UniProt P20813); assay: as §2; conditions: human
T7 sequence (P20813 whole entry): T6 sequence (P20813 whole entry)

[10] = molecular target: T8, CYP1A2 (Homo sapiens, UniProt P05177); assay: (§3) Mechanism based inhibition of human cytochrome P450 1A2 measured by phenacetin O-deethylation (POD); conditions: human, probe phenacetin (O-deethylation, POD)
T8 sequence (P05177 whole entry): T5 sequence (P05177 whole entry)

[11] = molecular target: T5, Cytochrome P450 1A2; assay: as §3
[12] = molecular target: T2, Cytochrome P450 2B1; assay: Mechanism based inhibition of rat cytochrome P450 CYP2B1; conditions: rat
[13] = molecular target: T9, Cytochrome P450 1B1 (Homo sapiens, UniProt Q16678); assay: Mechanism based inhibition of human cytochrome P450 1B1 measured by 7-ethoxyresorufin O-deethylation (EROD)
T9 sequence (Q16678 whole entry): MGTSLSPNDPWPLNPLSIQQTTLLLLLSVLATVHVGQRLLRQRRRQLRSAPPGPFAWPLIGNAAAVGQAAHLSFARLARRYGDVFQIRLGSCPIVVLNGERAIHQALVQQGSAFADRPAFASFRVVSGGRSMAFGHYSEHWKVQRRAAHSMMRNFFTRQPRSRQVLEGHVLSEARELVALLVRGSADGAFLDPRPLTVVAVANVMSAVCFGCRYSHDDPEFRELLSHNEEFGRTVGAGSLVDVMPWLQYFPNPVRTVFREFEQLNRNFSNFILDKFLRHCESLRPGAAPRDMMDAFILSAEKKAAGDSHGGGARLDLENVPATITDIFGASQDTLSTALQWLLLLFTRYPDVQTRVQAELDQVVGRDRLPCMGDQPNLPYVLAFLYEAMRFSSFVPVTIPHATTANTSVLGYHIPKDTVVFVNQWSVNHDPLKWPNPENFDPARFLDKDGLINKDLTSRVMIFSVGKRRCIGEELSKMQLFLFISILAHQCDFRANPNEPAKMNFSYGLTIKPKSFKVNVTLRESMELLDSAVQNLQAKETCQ

[14] = molecular target: T3, Cytochrome P450 3A4; assay: Mechanism based inhibition of human cytochrome P450 3A4, partition ratio
[15] = molecular target: T3, Cytochrome P450 3A4; assay: Mechanism based inhibition of human cytochrome P450 3A4 measured by nifedipine oxidation, omeprazole 3-hydroxylation and omeprazole sulfoxydation

T3 sequence (P08684 whole entry): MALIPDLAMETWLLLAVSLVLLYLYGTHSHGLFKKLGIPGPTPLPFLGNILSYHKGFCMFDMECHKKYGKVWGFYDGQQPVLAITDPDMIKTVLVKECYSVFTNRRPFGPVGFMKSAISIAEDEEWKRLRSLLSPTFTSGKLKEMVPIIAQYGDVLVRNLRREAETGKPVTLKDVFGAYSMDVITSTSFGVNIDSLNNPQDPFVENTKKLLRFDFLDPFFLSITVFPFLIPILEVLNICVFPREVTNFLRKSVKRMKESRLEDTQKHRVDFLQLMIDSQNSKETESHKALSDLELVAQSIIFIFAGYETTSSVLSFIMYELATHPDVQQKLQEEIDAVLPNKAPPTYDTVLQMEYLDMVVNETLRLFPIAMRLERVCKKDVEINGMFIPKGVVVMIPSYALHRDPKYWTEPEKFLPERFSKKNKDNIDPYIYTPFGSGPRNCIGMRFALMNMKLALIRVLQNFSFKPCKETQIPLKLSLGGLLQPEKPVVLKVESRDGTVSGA
Chain of Cytochrome P450 3A5 (P20815 whole entry): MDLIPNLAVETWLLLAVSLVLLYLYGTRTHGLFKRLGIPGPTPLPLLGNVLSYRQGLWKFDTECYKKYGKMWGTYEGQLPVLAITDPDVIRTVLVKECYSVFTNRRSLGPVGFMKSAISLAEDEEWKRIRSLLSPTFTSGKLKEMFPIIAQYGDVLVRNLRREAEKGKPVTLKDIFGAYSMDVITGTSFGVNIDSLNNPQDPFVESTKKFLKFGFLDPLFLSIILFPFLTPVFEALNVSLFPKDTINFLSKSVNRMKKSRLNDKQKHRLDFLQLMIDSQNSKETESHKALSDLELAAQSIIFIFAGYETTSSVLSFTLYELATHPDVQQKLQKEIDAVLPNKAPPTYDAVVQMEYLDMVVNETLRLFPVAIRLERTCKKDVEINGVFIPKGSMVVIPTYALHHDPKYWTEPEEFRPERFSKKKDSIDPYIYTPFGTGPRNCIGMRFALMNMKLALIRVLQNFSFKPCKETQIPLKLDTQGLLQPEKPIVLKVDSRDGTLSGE
Chain of Cytochrome P450 2C9 (P11712 whole entry): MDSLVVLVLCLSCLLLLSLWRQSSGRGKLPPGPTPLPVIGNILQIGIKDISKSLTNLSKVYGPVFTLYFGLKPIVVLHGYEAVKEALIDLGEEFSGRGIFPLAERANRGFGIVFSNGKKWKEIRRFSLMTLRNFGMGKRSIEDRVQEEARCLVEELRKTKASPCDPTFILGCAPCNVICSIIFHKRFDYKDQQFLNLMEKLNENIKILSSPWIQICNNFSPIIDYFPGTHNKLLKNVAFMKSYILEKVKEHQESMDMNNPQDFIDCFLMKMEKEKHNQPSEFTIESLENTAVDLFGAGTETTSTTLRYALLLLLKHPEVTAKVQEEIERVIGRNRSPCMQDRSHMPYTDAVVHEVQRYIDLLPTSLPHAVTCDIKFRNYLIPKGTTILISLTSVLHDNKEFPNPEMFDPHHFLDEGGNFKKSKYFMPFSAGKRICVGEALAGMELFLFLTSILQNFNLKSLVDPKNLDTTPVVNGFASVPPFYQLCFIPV

C#CCN(C)[C@H](C)Cc1ccccc1 [SELEGILINE]
kinact [1]: 0.00383 s⁻¹ | Ki [2]: 1.05 µM

CC(C)(C)NC(=O)[C@@H]1CN(Cc2cccnc2)CCN1C[C@@H](O)C[C@@H](Cc1ccccc1)C(=O)N[C@H]1c2ccccc2C[C@H]1O.O
mechanism based inhibition [3]: Cytochrome P450 mechanistic inhibitor: PMID 15523003

CCOC(=O)C1=C(C)N=C(C)/C(=C(/O)OCC)C1CC (centres undefined)
mechanism based inhibition [4]: Cytochrome P450 mechanistic inhibitor: PMID 9107543 | mechanism based inhibition [5]: Cytochrome P450 mechanistic inhibitor: PMID 9107543 | mechanism based inhibition [6]: Cytochrome P450 mechanistic inhibitor: PMID 9107543 | mechanism based inhibition [7]: Cytochrome P450 mechanistic inhibitor: PMID 9107543

c1ccc(C2(N3CCCCC3)CCCCC2)cc1 [PHENCYCLIDINE]
Ki [8]: 10 µM | kinact [9]: 0.000167 s⁻¹ | mechanism based inhibition ([2]; rat): Cytochrome P450 mechanistic inhibitor: PMID 9029055

C[C@H](c1cc2ccccc2s1)N(O)C(N)=O
kinact [10]: 0.0002 s⁻¹ | Ki [11]: 66 µM

C=CCC1(C(C)CCC)C(=O)NC(=O)NC1=O (centres undefined) [SECOBARBITAL]
mechanism based inhibition [12]: Cytochrome P450 mechanistic inhibitor: PMID 8728507

C#Cc1cc2ccc3cccc4ccc(c1)c2c34
mechanism based inhibition [13]: Cytochrome P450 mechanistic inhibitor: PMID 9760279 | mechanism based inhibition [5]: Cytochrome P450 mechanistic inhibitor: PMID 9760279

CC(C)Nc1cccnc1N1CCN(C(=O)c2cc3cc(NS(C)(=O)=O)ccc3[nH]2)CC1 [DELAVIRDINE]
Partition ratio [14]: 41

CC(C)(C)NC(=O)[C@@H]1C[C@@H]2CCCC[C@@H]2CN1C[C@@H](O)[C@H](Cc1ccccc1)NC(=O)[C@H](CC(N)=O)NC(=O)c1ccc2ccccc2n1
mechanism based inhibition [3]: Cytochrome P450 mechanistic inhibitor: PMID 15523003

C/C(=C\COc1c2ccoc2cc2oc(=O)ccc12)CCC(OC(C)(C)C(O)CC/C(C)=C/COc1c2ccoc2cc2oc(=O)ccc12)C(C)(C)O (centres undefined) [FC726]
mechanism based inhibition [4]: Cytochrome P450 mechanistic inhibitor: PMID 10859150 | Ki [15]: 0.13 µM
